# Results: patent publication US8497240B2 (priority 2006, dated 2013)
# Several values for one entry are separate records, joined by “and”; a condition that tells them apart may be missing. Equal entries are not always repeated. Where two headings read alike, the source gives them in different places.
# Key:
# human GIP receptor = molecular target: T1, human GIP receptor (Homo sapiens, UniProt P48546); assay: biochemical; type: binding
# T1 construct: expressed in transfected cells; host or cells: HEK293 (HEK-GIPR), membranes
# T1 sequence (P48546 22-466): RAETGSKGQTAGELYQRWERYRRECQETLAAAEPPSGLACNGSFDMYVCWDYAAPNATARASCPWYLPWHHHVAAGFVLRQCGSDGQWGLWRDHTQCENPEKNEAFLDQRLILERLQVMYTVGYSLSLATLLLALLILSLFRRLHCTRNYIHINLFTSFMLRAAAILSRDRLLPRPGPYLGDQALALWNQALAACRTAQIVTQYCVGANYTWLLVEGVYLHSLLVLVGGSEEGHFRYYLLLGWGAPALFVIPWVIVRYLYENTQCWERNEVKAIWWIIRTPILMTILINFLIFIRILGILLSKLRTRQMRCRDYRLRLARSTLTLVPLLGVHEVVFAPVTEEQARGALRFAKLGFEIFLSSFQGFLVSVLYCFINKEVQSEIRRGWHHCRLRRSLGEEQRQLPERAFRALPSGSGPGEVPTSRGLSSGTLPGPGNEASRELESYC
# [1] = type: in vivo, NIH/Swiss mice; conditions: 30 nmol/kg
# Protocol: (§1) In FIG. 3A, bars represent mean±sd, n=6-10. […] Gavage (1.5 g/kg) was given at t=0, Sample was taken at t=30 min. […] In FIG. 3B, points represent mean±sem, n=8-15.
# Peptide was injected IP at t=−5 minutes into 4-hour fasted NIH/Swiss female mice. […] In FIG. 17 points represent mean+/−sem. […] Samples were taken at t=60, t=120 and t=180.
# [2] = type: in vivo, NIH/Swiss mice; conditions: 80 nmol/kg, AUC240
# Protocol: as §1
# Points represent mean±sem.
# [3] = IVGTT duration of action assay (single SC injection before glucose); type: in vivo, rat; conditions: compared with 0601GIP3794 (794), dosed at −120 min
# Protocol: To determine a duration of action using the IVGTT assay, the sample was injected SC as a single injection at one time point indicated (e.g., t=−240, −120, −60 or −30) prior to administration of glucose. IV glucose was given at t=0.
# [4] = read-out: GIP RBA (% Inh 10 nM)
# [5] = read-out: (% Inh 10 nm, GIP-LF Assay)
Compound,inhibition at 0.01 µM (human GIP receptor; [4]),OGTT/GL (%) [1],Basal Glucose Lowering at Peptide Conc. of 80 nmol/kg [2],inhibition at 0.01 µM (human GIP receptor; [5]),Duration In The Rat IVGTT Assay [3]
CC[C@H](C)[C@H](NC(=O)[C@H](CO)NC(=O)[C@H](Cc1ccc(O)cc1)NC(=O)[C@H](CC(=O)O)NC(=O)[C@H](CO)NC(=O)[C@@H](NC(=O)[C@H](Cc1ccccc1)NC(=O)[C@@H](NC(=O)CNC(=O)[C@H](CCC(=O)O)NC(=O)[C@H](CO)NC(=O)[C@@H](N)Cc1ccc(O)cc1)[C@@H](C)O)[C@@H](C)CC)C(=O)N[C@@H](C)C(=O)N[C@@H](CCSC)C(=O)N[C@@H](CC(=O)O)C(=O)N[C@@H](CCCCN)C(=O)N[C@H](C(=O)N[C@@H](Cc1c[nH]cn1)C(=O)N[C@@H](CCC(N)=O)C(=O)N[C@@H](CCC(N)=O)C(=O)N[C@@H](CC(=O)O)C(=O)N[C@@H](Cc1ccccc1)C(=O)N[C@H](C(=O)N[C@@H](CC(N)=O)C(=O)N[C@@H](Cc1c[nH]c2ccccc12)C(=O)N[C@@H](CC(C)C)C(=O)N[C@@H](CC(C)C)C(=O)N[C@@H](C)C(=O)N[C@@H](CCC(N)=O)C(=O)N[C@@H](CCCCN)C(=O)N1CCC[C@H]1C(=O)N[C@@H](CCCCN)C(=O)N[C@@H](CCCCN)C(=O)N[C@H](C(=O)N[C@@H](CCCNC(=N)N)C(=O)N[C@@H](Cc1ccc(O)cc1)C(=O)N[C@@H](CO)C(N)=O)[C@@H](C)CC)C(C)C)[C@@H](C)CC [0601GIP4538],94.2%,"−9, 30%",–,–,–
CC[C@H](C)[C@H](NC(=O)[C@H](CO)NC(=O)[C@H](Cc1ccc(O)cc1)NC(=O)[C@H](CC(=O)O)NC(=O)[C@H](CO)NC(=O)[C@@H](NC(=O)[C@H](Cc1ccccc1)NC(=O)[C@@H](NC(=O)CNC(=O)[C@H](CCC(=O)O)NC(=O)[C@@H](C)NC(=O)[C@@H](N)Cc1ccc(O)cc1)[C@@H](C)O)[C@@H](C)CC)C(=O)N[C@@H](C)C(=O)N[C@@H](CC(C)C)C(=O)N[C@@H](CC(=O)O)C(=O)N[C@@H](CCCCN)C(=O)N[C@H](C(=O)N[C@@H](CCCNC(=N)N)C(=O)N[C@@H](CCC(N)=O)C(=O)N[C@@H](CCC(N)=O)C(=O)N[C@@H](CCC(=O)O)C(=O)N[C@@H](Cc1ccccc1)C(=O)N[C@H](C(=O)N[C@@H](CC(N)=O)C(=O)N[C@@H](Cc1c[nH]c2ccccc12)C(=O)N[C@@H](CC(C)C)C(=O)N[C@@H](CC(C)C)C(=O)N[C@@H](C)C(=O)N[C@@H](CCC(N)=O)C(=O)N[C@@H](CCCCN)C(=O)N1CCC[C@H]1C(=O)N[C@@H](CCCCN)C(=O)N[C@@H](CCCCN)C(=O)N[C@H](C(=O)N[C@@H](CCCNC(=N)N)C(=O)N[C@@H](Cc1ccc(O)cc1)C(=O)N[C@@H](CO)C(N)=O)[C@@H](C)CC)C(C)C)[C@@H](C)CC [0601GIP4539],98.7%,"−12, 30%","−5%, AUC240",–,–
CC[C@H](C)[C@H](NC(=O)[C@H](CO)NC(=O)[C@H](Cc1ccc(O)cc1)NC(=O)[C@H](CC(=O)O)NC(=O)[C@H](CO)NC(=O)[C@@H](NC(=O)[C@H](Cc1ccccc1)NC(=O)[C@@H](NC(=O)CNC(=O)[C@H](CCC(=O)O)NC(=O)[C@@H](C)NC(=O)[C@@H](N)Cc1ccc(O)cc1)[C@@H](C)O)[C@@H](C)CC)C(=O)N[C@@H](C)C(=O)N[C@@H](CCSC)C(=O)N[C@@H](CC(=O)O)C(=O)N[C@@H](CCCCN)C(=O)N[C@H](C(=O)N[C@@H](Cc1c[nH]cn1)C(=O)N[C@@H](CCC(N)=O)C(=O)N[C@@H](CCC(N)=O)C(=O)N[C@@H](CC(=O)O)C(=O)N[C@@H](Cc1ccccc1)C(=O)N[C@H](C(=O)N[C@@H](CC(N)=O)C(=O)N[C@@H](Cc1c[nH]c2ccccc12)C(=O)N[C@@H](CC(C)C)C(=O)N[C@@H](CC(C)C)C(=O)N[C@@H](C)C(=O)N[C@@H](CCC(N)=O)C(=O)N[C@@H](CCCCN)C(=O)NCCC(=O)NCCC(=O)N1CCC[C@H]1C(=O)N[C@@H](CCCCN)C(=O)N[C@@H](CCCCN)C(=O)N[C@H](C(=O)N[C@@H](CCCNC(=N)N)C(=O)N[C@@H](Cc1ccc(O)cc1)C(=O)N[C@@H](CO)C(N)=O)[C@@H](C)CC)C(C)C)[C@@H](C)CC [0601GIP4648],85.1%,"−20, 30%","−8%, AUC240",–,–
CC[C@H](C)[C@H](NC(=O)[C@H](CO)NC(=O)[C@H](Cc1ccc(O)cc1)NC(=O)[C@H](CC(=O)O)NC(=O)[C@H](CO)NC(=O)[C@@H](NC(=O)[C@H](Cc1ccccc1)NC(=O)[C@@H](NC(=O)CNC(=O)[C@H](CCC(=O)O)NC(=O)[C@@H](C)NC(=O)[C@@H](N)Cc1ccc(O)cc1)[C@@H](C)O)[C@@H](C)CC)C(=O)N[C@@H](C)C(=O)N[C@@H](CCSC)C(=O)N[C@@H](CC(=O)O)C(=O)N[C@@H](CCCCN)C(=O)N[C@H](C(=O)N[C@@H](Cc1c[nH]cn1)C(=O)N[C@@H](CCC(N)=O)C(=O)N[C@@H](CCC(N)=O)C(=O)N[C@@H](CC(=O)O)C(=O)N[C@@H](Cc1ccccc1)C(=O)N[C@H](C(=O)N[C@@H](CC(N)=O)C(=O)N[C@@H](Cc1c[nH]c2ccccc12)C(=O)N[C@@H](CC(C)C)C(=O)N[C@@H](CC(C)C)C(=O)N[C@@H](C)C(=O)N[C@@H](CCC(N)=O)C(=O)N[C@@H](CCCCN)C(=O)N1CCC[C@H]1C(=O)N[C@@H](CCCCN)C(=O)NCC(=O)N[C@@H](CCCCN)C(=O)NCC(=O)N[C@@H](CCCCN)C(=O)N[C@@H](CO)C(N)=O)C(C)C)[C@@H](C)CC [0601GIP4700],86.6%,"−21, 30%","−6%, AUC240",–,–
CC[C@H](C)[C@H](NC(=O)[C@H](CCCCN)NC(=O)[C@H](CC(=O)O)NC(=O)[C@H](CC(C)C)NC(=O)[C@H](C)NC(=O)[C@@H](NC(=O)[C@H](CO)NC(=O)[C@H](Cc1ccc(O)cc1)NC(=O)[C@H](CC(=O)O)NC(=O)[C@H](CO)NC(=O)[C@@H](NC(=O)[C@H](Cc1ccccc1)NC(=O)[C@@H](NC(=O)CNC(=O)[C@H](CCC(=O)O)NC(=O)[C@@H](C)NC(=O)[C@H](Cc1ccc(O)cc1)NC(=O)[C@@H](N)CC(C)C)[C@@H](C)O)[C@@H](C)CC)[C@@H](C)CC)C(=O)N[C@@H](C)C(=O)N[C@@H](CCC(N)=O)C(=O)N[C@@H](CCC(N)=O)C(=O)N[C@@H](CCC(=O)O)C(=O)N[C@@H](Cc1ccccc1)C(=O)N[C@H](C(=O)N[C@@H](CC(N)=O)C(=O)N[C@@H](Cc1c[nH]c2ccccc12)C(=O)N[C@@H](CC(C)C)C(=O)N[C@@H](CC(C)C)C(=O)N[C@@H](C)C(=O)N[C@@H](CCC(N)=O)C(=O)N[C@@H](CCCCN)C(=O)N1CCC[C@H]1C(=O)N[C@@H](CCCCN)C(=O)N[C@@H](CCCCN)C(=O)N[C@H](C(=O)N[C@@H](CCCNC(=N)N)C(=O)N[C@@H](Cc1ccc(O)cc1)C(=O)N[C@@H](CO)C(N)=O)[C@@H](C)CC)C(C)C [0601GIP4802],87.3%,"−28, %",–,87.3%,<794 @ −120 min
CC[C@H](C)[C@H](NC(=O)[C@H](CCCCN)NC(=O)[C@H](CC(=O)O)NC(=O)[C@H](CC(C)C)NC(=O)[C@H](C)NC(=O)[C@@H](NC(=O)[C@H](CO)NC(=O)[C@H](Cc1ccc(O)cc1)NC(=O)[C@H](CC(=O)O)NC(=O)[C@H](CO)NC(=O)[C@@H](NC(=O)[C@H](Cc1ccccc1)NC(=O)[C@@H](NC(=O)CNC(=O)[C@H](CCC(=O)O)NC(=O)[C@H](C)NC(=O)[C@H](Cc1ccc(O)cc1)NC(=O)[C@@H](N)CC(C)C)[C@@H](C)O)[C@@H](C)CC)[C@@H](C)CC)C(=O)N[C@@H](C)C(=O)N[C@@H](CCC(N)=O)C(=O)N[C@@H](CCC(N)=O)C(=O)N[C@@H](CCC(=O)O)C(=O)N[C@@H](Cc1ccccc1)C(=O)N[C@H](C(=O)N[C@@H](CC(N)=O)C(=O)N[C@@H](Cc1c[nH]c2ccccc12)C(=O)N[C@@H](CC(C)C)C(=O)N[C@@H](CC(C)C)C(=O)N[C@@H](C)C(=O)N[C@@H](CCC(N)=O)C(=O)N[C@@H](CCCCN)C(=O)N1CCC[C@H]1C(=O)N[C@@H](CCCCN)C(=O)N[C@@H](CCCCN)C(=O)N[C@H](C(=O)N[C@@H](CCCNC(=N)N)C(=O)N[C@@H](Cc1ccc(O)cc1)C(=O)N[C@@H](CO)C(N)=O)[C@@H](C)CC)C(C)C [0601GIP4803],89.9%,"−16, %",–,89.9%,–
CC[C@H](C)[C@H](NC(=O)[C@H](CO)NC(=O)[C@H](Cc1ccc(O)cc1)NC(=O)[C@H](CC(=O)O)NC(=O)[C@H](CO)NC(=O)[C@@H](NC(=O)[C@H](Cc1ccccc1)NC(=O)[C@@H](NC(=O)CNC(=O)[C@H](CCC(=O)O)NC(=O)[C@@H](C)NC(=O)[C@@H](N)Cc1ccc(O)cc1)[C@@H](C)O)[C@@H](C)CC)C(=O)N[C@@H](C)C(=O)N[C@@H](CC(C)C)C(=O)N[C@@H](CC(=O)O)C(=O)N[C@@H](CCCCN)C(=O)N[C@H](C(=O)N[C@@H](Cc1c[nH]cn1)C(=O)N[C@@H](CCC(N)=O)C(=O)N[C@@H](CCC(N)=O)C(=O)N[C@@H](CC(=O)O)C(=O)N[C@@H](Cc1ccccc1)C(=O)N[C@H](C(=O)N[C@@H](CC(N)=O)C(=O)N[C@@H](Cc1c[nH]c2ccccc12)C(=O)N[C@@H](CC(C)C)C(=O)N[C@@H](CC(C)C)C(=O)N[C@@H](C)C(=O)N[C@@H](CCC(N)=O)C(=O)N[C@@H](CCCCN)C(=O)N1CCC[C@H]1C(=O)N[C@@H](CCCCN)C(=O)N[C@@H](CCCCN)C(=O)N[C@H](C(=O)N[C@@H](CCCNC(=N)N)C(=O)N[C@@H](Cc1ccc(O)cc1)C(=O)N[C@@H](CO)C(N)=O)[C@@H](C)CC)C(C)C)[C@@H](C)CC [0601GIP4807],96.1%,"−27, % and −27, 30%",–,96.1%,<794 @ −120 min
